From patent publication US4920134A, “2-O-pyrimidinyl glycerol derivatives” (Takeda Chemical Industries, Ltd., priority 1987, dated 1990)

Columns and labels:
[1] = system: HL-60 cells; assay: Proliferation-inhibitory effect against human myelocytic leukemia HL-60 cells ([3H]thymidine incorporation); type: cell-based; details: 20 h + 4 h with [3H]thymidine, 37° C.
Procedure: Proliferation-inhibitory effect (IC50) of compounds in Examples against human myelocytic leukemia HL-60 cells HL-60 cells (human leukemia cell line) were suspended in GIT medium (Wako Pure Chemicals) containing a test compound to a concentration of 2×10^5 cells/ml, and 0.2 ml of the suspension was transferred to each well of a microwell plate having 96 wells. […] To determine the amount of thymidine incorporated into the cells, an acid-insoluble fraction was collected by a glass filter, and the radioactivity was measured by a liquid scintillation counter. The concentration of the drug which was required for 50% reduction of incorporated radioactivity from that of the control group without medication was taken as the IC50 value of the compound.

[2] = system: murine breast cancer MM46 cells; assay: Antitumor activity in C3H mice inoculated with murine breast cancer MM46 cells; type: in vivo, C3 H mice; details: i.p., 0.25 mg/mouse per administration; for life-span prolongation ratio T/C: once a day for 4 days from 2nd day, calculated only on survived days of died mice; for No. of survivors/No. of tested animals: once a day for 4 days, on the 60th day
Excerpt: (§1) Antitumor activity of compounds in Examples
C3 H mice were intraperitoneally inoculated with 1×10^4 murine breast cancer MM46 cells, and then intraperitoneally given a compound of Examples dissolved in physiological saline once a day for 4 days from the 2nd day after the inoculation. The life-span prolongation ratio* (T/C %) against the control group without medication and the number of surviving mice on the 60th day are shown in Table 3.
*Calculated only on the survived days of died mice

[3] = system: Sarcoma 180 cells; assay: Antitumor activity in ICR mice inoculated with Sarcoma 180 cells; type: in vivo; details: Sarcoma 180, ICR mice, i.p., 0.33 mg/mouse; for life-span prolongation ratio T/C: 3 times (1 hour, 1 day, 2 days after inoculation), calculated only on survival days of died mice; for No. of survivors/No. of tested animals: 3 times, on the 60th day
Procedure: as §1
ICR mice were intraperitoneally inoculated with 1×10^5 Sarcoma 180 cells per mouse, and then intraperitoneally given 0.33 mg/mouse of a compound of Examples dissolved in physiological saline, three times in total, i.e. 1 hour, 1 day and 2 days after the inoculation. The life-span prolongation ratio* (T/C %) against the control group without medication and the number of surviving mice on the 60th day are shown in Table 2.
*Calculated only on the survival days of died mice.

[4] = system: P388 cells; assay: Antitumor activity in CDF1 mice inoculated with P388 cells; type: in vivo; details: i.p., 0.5 mg/mouse, twice (1 hour and 5 days after inoculation)
Procedure: CDF1 mice (5 heads per group) were intraperitoneally inoculated with 1×10^6 P388 cells per mouse, and then intraperitoneally given 0.5 mg/mouse of the compound in Example 2 dissolved in physiological saline, twice in total, i.e. 1 hour and 5 days after the inoculation. The life-span prolongation ratio (T/C %) against the control group without medication was 151%.

Row | SMILES | IC50 [1] [µg/mL] | life-span prolongation ratio T/C [2] [%] | No. of survivors/No. of tested animals [2] | other results
1 | CCCCCCCCCCCCCCCCCCOCC(COCCOCC[n+]1ccn(C)c1)Oc1ncccn1.[Cl-] (stereo not shown) [Example 10, 1-Methyl-3-[2-[2-[3-octadecyloxy-2-(pyrimidin-2-yloxy)propoxy]ethoxy]ethyl]imidazolium chloride] | 0.63 |  |  | 
2 | CCCCCCCCCCCCCCCCCCOCC(COCCOCC[n+]1cccc(C(N)=O)c1)Oc1ccncn1.[Cl-] (stereo not shown) [Example 12, 3-Carbamoyl-1-[2-[2-[3-octadecyloxy-2-(pyrimidin-4-yloxy)propoxy]ethoxy]ethyl]pyridinium chloride] | 2.5 |  |  | 
3 | CCCCCCCCCCCCCCCCCCOCC(COCCOCC[N+](C)(C)C)Oc1ncccn1.[Cl-] (stereo not shown) [Example 1, N-2-[2-[3-Octadecyloxy-2-(pyrimidin-2-yloxy)propoxy]ethoxy]ethyl-N,N,N-trimethylammonium chloride] | 0.63 | 160 | 4/5 | life-span prolongation ratio T/C [3]: 200%; No. of survivors/No. of tested animals [3]: 0/5
4 | CCCCCCCCCCCCCCCCCCOCC(COCCOCCOCC[N+](C)(C)C)Oc1ncccn1.[Cl-] (stereo not shown) [Example 14, N-2-[2-[2-[3-Octadecyloxy-2-(pyrimidin-2-yloxy)propoxy]ethoxy]ethoxy]ethyl-N,N,N-trimethylammonium chloride] | 2.5 |  |  | 
5 | CCCCCCCCCCCCCCCCCCOCC(COCCOCC[N+](C)(C)C)Oc1ccncn1.[Cl-] (stereo not shown) [Example 11, N-2-[2-[3-Octadecyloxy-2-(pyrimidin-4-yloxy)propoxy]ethoxy]ethyl-N,N,N-trimethylammonium chloride] | 1.25 |  |  | 
6 | CCCCCCCCCCCCCCCCCCOCC(COCCOCC[N+](C)(C)C)Oc1cccnn1.[Cl-] (stereo not shown) [Example 3, N-[2-[2-[3-Octadecyloxy-2-(pyridazin-3-yloxy)propoxy]ethoxy]ethyl]-N,N,N-trimethylammonium chloride] | 0.32 |  |  | life-span prolongation ratio T/C [3]: 269%; No. of survivors/No. of tested animals [3]: 0/5
7 | CCCCCCCCCCCCCCCCCCOCC(COCCOCC[n+]1cccc(C(=O)[O-])c1)Oc1ncccn1 (stereo not shown) [Example 6, 1-[2-[2-[3-Octadecyloxy-2-(pyrimidin-2-yloxy)propoxy]ethoxy]ethyl]pyridinio-3-carboxylate] |  | 121 | 4/5 | 
8 | CCCCCCCCCCCCCCCCCCOCC(COCCOCC[n+]1ccsc1)Oc1ncccn1.[Cl-] (stereo not shown) [Example 4, 3-[2-[2-[3-Octadecyloxy-2-(pyrimidin-2-yloxy)propoxy]ethoxy]ethyl]thiazolium chloride] | 2.5 |  |  | life-span prolongation ratio T/C [3]: 244%; No. of survivors/No. of tested animals [3]: 0/4
9 | CCCCCCCCCCCCCCCCCCOCC(COCCOCC[n+]1ccc(C(C)(C)C)cc1)Oc1ncccn1 (stereo not shown) [Example 8, 4-t.-Butyl-1-[2-[2-[3-octadecyloxy-2-(pyrimidin-2-yloxy)propoxy]ethoxy]ethyl]pyridinium chloride] | 1.25 |  |  | 
10 | CCCCCCCCCCCCCCCCCCOCC(COCCOCC[n+]1cccc(C(N)=O)c1)Oc1ncccn1.[Cl-] (stereo not shown) [Example 5, 3-Carbamoyl-1-[2-[2-[3-octadecyloxy-2-(pyrimidin-2-yloxy)propoxy]ethoxy]ethyl]pyridinium chloride] | 0.63 |  |  | 
11 | CCCCCCCCCCCCCCCCCCOCC(COCCOCC[N+](C)(C)C)Oc1ccc(Cl)nn1 (stereo not shown) [Example 2, N-[2-[2-[2-(3-Chloropyridazine-6-yloxy)-3-octadecyloxy]propoxy]ethoxy]ethyl-N,N,N-trimethylammonium chloride] | 1.25 | 174 | 1/5 | life-span prolongation ratio (T/C %) [4]: 151%
12 | CCCCCCCCCCCCCCCCCCOCC(COCCOCC[n+]1cccc(O)c1)Oc1ncccn1.[Cl-] (stereo not shown) [Example 9, 3-Hydroxy-1-[2-[2-[3-octadecyloxy-2-(pyrimidin-2-yloxy)propoxy]ethoxy]ethyl]pyridinium chloride] |  | 132 | 1/3 | 
